Patent publication US20240247207A1, “MALTOSIDE-, LACTOBIONAMIDE-, MONOGLUCOSIDE-, BRANCHED DIGLUCOSIDE-, SULFOBETAINE-, SULFATE- OR AMINOOXIDE-BASED PERFLUORINATED DETERGENTS AND THEIR USE IN MEMBRANE-PROTEINS APPLICATIONS” (AVIGNON UNIVERSITE, priority 2021, published 2024)
“Also recorded” adds a separate entry of the source.

Columns and labels:
[1] = SFT for CMC determination (surface tension, Wilhelmy plate technique); format: physicochemical; conditions: air/water interface, (20.0±0.5)° C.
Experimental: SFT for CMC determination. The surface activity of the compounds of the invention in solution at the air/water interface was determined using a K100 tensiometer (Kruss, Hamburg, Germany). Surface tensions were determined by dilution of stock solutions (13 g/L for compound 5a (cyF6H3Malt), 4.6 g/L for compound 5b (cyF6H4Malt), 2 g/L for compound 5c (cyF6H5Malt), 10 g/L for compound 8a (isoF5H3Malt), 1.7 g/L for compound 8c (isoF5H5Malt) and 0.4 g/L for compound 8b (isoF7H3Malt), ˜4×CMC) using the Wilhelmy plate technique. In a typical experiment, 13 concentration steps were prepared from solutions equilibrated overnight before measurement. All measurements were performed at (20.0±0.5)° C. until standard deviation reach ±0.05 or during at least 30 min.

[2] = system: membrane-proteins from native E. coli membranes; assay: Extraction of membrane-proteins from native E. coli membranes, SDS-PAGE quantification; conditions: for membrane-protein extraction / solubilization efficiency (in words): CMC+1, 2, 5, 10 mM, at least 16 h at 20° C., yields relative to buffer without detergent
Experimental: Solubilization of Membrane-Proteins from native E. coli membranes. E. coli BL21(DE3) cells were transformed with an empty pET-24 vector and selected by kanamycin resistance. After incubation in 400 mL lysogeny broth overnight at 37° C. under constant agitation (150 rpm), cells were harvested by centrifugation and washed twice with saline (154 mM NaCl). Cell pellets were resuspended in ice-cold buffer (100 mM Na2CO3, pH 11.5) and subjected to ultrasonication in an S-250A sonifier (Branson Ultrasonics, Danbury, USA) twice for 10 min each. To remove cell debris, the lysate was centrifuged at 4° C. for 20 min at 7149 rpm (3000 g). The supernatant was ultracentrifuged at 4° C. for 1 h at 31 400 rpm (100,000 g) to separate membrane fragments from soluble and peripheral proteins. Membrane pellets were washed and suspended in working buffer, ultracentrifuged again at 4° C. for 1 h at 31 400 rpm (100,000 g) to remove any residual soluble or peripheral proteins. The resulting pellets were resuspended in buffer (50 mM Tris, 200 mM NaCl, pH 7.4) to a final concentration of 100 mg wet-weight pellet per 1 mL of buffer and mixed in a 1:1 volume ratio with stock solutions of the compounds of the invention in buffer. All samples were incubated for at least 16 h at 20° C. under constant, gentle agitation (500 rpm) and subsequently ultracentrifuged at 4° C. for 1 h at 51 000 rpm (100,000 g). The solubilized supernatant containing micelles was analyzed using SDS-PAGE.
Sodium dodecyl sulphate polyacrylamide gel electrophoresis (SDS-PAGE). The solubilization efficiency of compound 5a, F6OM, F6OPC and DDM on biological membranes was assessed by SDS-PAGE using a NuPAGE Bis-Tris system (Life Technologies, Carlsbad, USA) with a polyacrylamide gradient of 4-12%. 14-μL samples were mixed with 5 μL 4×SDS sample buffer (106 mM Tris HCl, 141 mM Tris base, 2% (w v) SDS, 10% (w v) glycerol, 0.51 mM EDTA, 0.22 mM SERVA Blue G250, and 0.175 mM Phenol Red, pH 8.5) and 1 μL 1 M dithiothreitol (DTT) and boiled at 95° C. for 10 min. 12 μL of each sample was loaded on a ready-to-use NuPAGE. As reference, a standard-weight marker (Roti-Mark 10-150, Carl Roth, Karlsruhe, Germany) was used, and the working buffer was used as negative control. […] For quantification of solubilization efficiencies, gels were photographed with a C4000Z camera (Olympus, Tokyo, Japan), and protein bands were analyzed with ImageJ software.
Results. The intensities (i.e., pixel counts) of SDS-PAGE band patterns (FIG. 2) were analyzed to provide the overall protein-extraction yields which were expressed relative to the buffer without any detergent.

[3] = 100 μM POPC LUVs, detergent at CMC+ca. 5 mM, 25° C., light scattering at 90°
Experimental: Preparation of lipid vesicles. To prepare LUVs, POPC in powder form was weighed on a high-precision XP Delta Range microbalance (Mettler Toledo, Greifensee, Switzerland) and suspended in phosphate buffer (10 mM Na2HIPO4/NaH2PO4, 150 mM NaCl, pH 7.4). The solution was vortexed for 15 min at room temperature and extruded in a LiposoFast extruder (Avestin, Mannheim, Germany) with at least 35 extrusion steps through two stacked polycarbonate membranes with a pore diameter of 100 nm (Avestin). The hydrodynamic diameter of the LUVs was distributed around 120-130 nm, as shown by DLS.
Kinetics of vesicle solubilization. For vesicle solubilization kinetics, measurements were conducted by adding a high concentration (ca. 5 mM) of the compound of the invention above its CMC to 100 μM POPC LUVs in a 3 mm×3 mm quartz glass cuvette. […] Measurements were started immediately after mixing the vesicle suspension to monitor changes in light scattering intensity, Iscatter at an angle of 90° and at 25° C.
The solubilization of preformed large unilamellar vesicles (LUVs) composed of the singly unsaturated phospholipid 1-palmitoyl-2-oleyl-sn-glycero-3-phosphocholine (POPC) was investigated.

[4] = literature value; cited from earlier work

For `OC[C@H]1O[C@H](O[C@H]2[C@H](O)[C@@H](O)[C@H](OCCCC3(F)C(F)(F)C(F)(F)C(F)(F)C(F)(F)C3(F)F)O[C@@H]2CO)[C@H](O)[C@@H](O)[C@@H]1O` [Compound 5a, 3-(perfluorocyclohexyl)-propoxy-4-O—(α-D-glucopyranosyl)-β-D-glucopyranoside], the “CMC (critical micellar concentration)” value [1] was 3.47 mM, the “γCMC (surface tension at the CMC)” value [1] was 23.9 mN/m and the “membrane-protein extraction / solubilization efficiency (in words)” value [2] was “efficiently extracted membrane-proteins; also recorded: higher membrane-protein extraction yield than F6OM and F6OPC”. The “solubilization efficiency at low concentrations, compared with DDM (in words)” value ([2]; low concentrations, CMC+1-5 mM) was “better solubilization efficiencies than DDM” and the “time to complete solubilization of LUVs” value [3] was roughly 2 h.

For `OC[C@H]1O[C@H](O[C@H]2[C@H](O)[C@@H](O)[C@H](OCCCCC3(F)C(F)(F)C(F)(F)C(F)(F)C(F)(F)C3(F)F)O[C@@H]2CO)[C@H](O)[C@@H](O)[C@@H]1O` [Compound 5b, 4-(perfluorocyclohexyl)-butoxy-4-O—(α-D-glucopyranosyl)-β-D-glucopyranoside], the “CMC (critical micellar concentration)” value [1] was 2.29 mM and the “γCMC (surface tension at the CMC)” value [1] was 22.7 mN/m.

With `OC[C@H]1O[C@H](O[C@H]2[C@H](O)[C@@H](O)[C@H](OCCCCCC3(F)C(F)(F)C(F)(F)C(F)(F)C(F)(F)C3(F)F)O[C@@H]2CO)[C@H](O)[C@@H](O)[C@@H]1O` [Compound 5c, 5-(perfluorocyclohexyl)-pentoxy-4-O—(α-D-glucopyranosyl)-β-D-glucopyranoside] the “CMC (critical micellar concentration)” value [1] was 0.70 mM and the “γCMC (surface tension at the CMC)” value [1] was 23.16 mN/m.

With `OC[C@H]1O[C@H](O[C@H]2[C@H](O)[C@@H](O)[C@H](OCCCC(F)(F)C(F)(F)C(F)(C(F)(F)F)C(F)(F)F)O[C@@H]2CO)[C@H](O)[C@@H](O)[C@@H]1O` [Compound 8a, 3-(perfluoroisopentyl)-propoxy-4-O—(α-D-glucopyranosyl)-β-D-glucopyranoside] the “CMC (critical micellar concentration)” value [1] was 2.66 mM and the “γCMC (surface tension at the CMC)” value [1] was 22.5 mN/m.

For `OC[C@H]1O[C@H](O[C@H]2[C@H](O)[C@@H](O)[C@H](OCCCC(F)(F)C(F)(F)C(F)(F)C(F)(F)C(F)(C(F)(F)F)C(F)(F)F)O[C@@H]2CO)[C@H](O)[C@@H](O)[C@@H]1O` [Compound 8b, 3-(perfluoroisoheptyl)-propoxy-4-O—(α-D-glucopyranosyl)-β-D-glucopyranoside], the “CMC (critical micellar concentration)” value [1] was 0.11 mM and the “γCMC (surface tension at the CMC)” value [1] was 17.4 mN/m.

In the case of `OC[C@H]1O[C@H](O[C@H]2[C@H](O)[C@@H](O)[C@H](OCCCCCC(F)(F)C(F)(F)C(F)(C(F)(F)F)C(F)(F)F)O[C@@H]2CO)[C@H](O)[C@@H](O)[C@@H]1O` [Compound 8c, 5-(perfluoroisopentyl)-pentoxy-4-O—(α-D-glucopyranosyl)-β-D-glucopyranoside], the “CMC (critical micellar concentration)” value [1] is reported as 0.53 mM and the “γCMC (surface tension at the CMC)” value [1] is reported as 22.1 mN/m.

In the case of `O=C(NCCCC1(F)C(F)(F)C(F)(F)C(F)(F)C(F)(F)C1(F)F)C(O)[C@H](O)[C@H](O[C@@H]1OC(CO)[C@H](O)[C@H](O)C1O)C(O)CO` (stereo partly drawn) [Compound 12, 3-(perfluorocyclohexyl)-N-propane Octahydroxy lactobionamide], the “CMC (critical micellar concentration)” value [1] is reported as 6.32 mM and the “γCMC (surface tension at the CMC)” value [1] is reported as 24.4 mN/m.

For `C[N+](C)(CCCCCC1(F)C(F)(F)C(F)(F)C(F)(F)C(F)(F)C1(F)F)CCCS(=O)(=O)[O-]` [Compound 17, 3-(dimethyl(5-(perfluorocyclohexyl)pentyl)ammonio)propane-1-sulfonate], the “CMC (critical micellar concentration)” value [1] was 3.20 mM and the “γCMC (surface tension at the CMC)” value [1] was 23.7 mN/m.

For `OC[C@H]1O[C@H](O[C@H]2[C@H](O)[C@@H](O)[C@H](OCCC(F)(F)C(F)(F)C(F)(F)C(F)(F)C(F)(F)C(F)(F)F)O[C@@H]2CO)[C@H](O)[C@@H](O)[C@@H]1O` [Compound F6OM, (1H, 1H, 2H, 2H-Perfluorooctyl)-β-D-Maltopyranoside, reference compound], the “membrane-protein extraction / solubilization efficiency (in words)” value [2] is given as “very limited solubilization” and the CMC [4] is given as 0.7 mM.

In the case of `C[N+](C)(C)CCOP(=O)([O-])OCCC(F)(F)C(F)(F)C(F)(F)C(F)(F)C(F)(F)C(F)(F)F` [Compound F6OPC, (1H, 1H, 2H, 2H-Perfluorooctyl)phosphocholine, reference compound], the “membrane-protein extraction / solubilization efficiency (in words)” value [2] is given as “very limited solubilization” and the CMC [4] is given as 2.9 mM.

For `CCCCCCCCCCCCO[C@@H]1O[C@H](CO)[C@@H](O[C@H]2O[C@H](CO)[C@@H](O)[C@H](O)[C@H]2O)[C@H](O)[C@H]1O` [DDM, n-dodecyl-β-D-maltoside], the CMC [4] is listed as 0.17 mM.
